Assay results from ChEMBL document CHEMBL1135016, “Inhibition of amine oxidases activity by 1-acetyl-3,5-diphenyl-4,5-dihydro-(1H)-pyrazole derivatives” (Bioorg Med Chem Lett, 2002).

How the values were obtained:
[1] = molecular target: T1, Monoamine oxidase (Bos taurus, UniProt P56560+P21398); assay: Inhibitory activity against Monoamine oxidase from Bovine brain mitochondria
T1 sequence (P56560 whole entry): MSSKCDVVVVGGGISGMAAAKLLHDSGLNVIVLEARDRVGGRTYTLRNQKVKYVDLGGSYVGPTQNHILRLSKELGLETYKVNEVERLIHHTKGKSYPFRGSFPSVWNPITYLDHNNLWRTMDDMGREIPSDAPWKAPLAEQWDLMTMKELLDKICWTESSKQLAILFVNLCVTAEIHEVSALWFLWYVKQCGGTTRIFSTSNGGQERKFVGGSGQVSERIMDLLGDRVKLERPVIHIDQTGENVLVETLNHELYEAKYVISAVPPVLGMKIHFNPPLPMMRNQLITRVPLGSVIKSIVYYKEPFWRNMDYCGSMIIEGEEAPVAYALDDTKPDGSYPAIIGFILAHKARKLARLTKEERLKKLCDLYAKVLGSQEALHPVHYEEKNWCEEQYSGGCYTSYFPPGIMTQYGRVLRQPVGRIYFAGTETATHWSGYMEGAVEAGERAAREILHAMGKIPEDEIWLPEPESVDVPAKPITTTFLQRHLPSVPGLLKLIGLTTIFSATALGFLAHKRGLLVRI
T1 sequence (P21398 whole entry): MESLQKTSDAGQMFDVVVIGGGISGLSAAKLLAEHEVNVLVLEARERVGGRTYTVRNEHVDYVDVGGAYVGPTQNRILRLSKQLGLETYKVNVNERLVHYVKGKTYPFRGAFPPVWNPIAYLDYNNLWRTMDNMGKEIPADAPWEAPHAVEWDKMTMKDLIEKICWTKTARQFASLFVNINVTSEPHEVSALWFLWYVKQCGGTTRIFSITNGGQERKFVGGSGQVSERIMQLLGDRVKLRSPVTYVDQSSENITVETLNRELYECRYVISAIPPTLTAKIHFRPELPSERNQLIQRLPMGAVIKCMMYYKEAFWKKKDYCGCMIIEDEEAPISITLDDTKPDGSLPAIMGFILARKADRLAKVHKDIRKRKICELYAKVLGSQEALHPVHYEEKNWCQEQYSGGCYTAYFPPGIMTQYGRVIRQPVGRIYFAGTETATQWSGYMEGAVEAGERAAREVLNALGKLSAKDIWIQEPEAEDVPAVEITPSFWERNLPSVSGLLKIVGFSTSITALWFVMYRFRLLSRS

[2] = molecular target: T2, Amine oxidase [flavin-containing] A (Bos taurus, UniProt P21398); assay: Inhibiting activity of the compound was determined against bovine Monoamine oxidase A
T2 sequence (P21398 whole entry): T1 sequence (P21398 whole entry)

[3] = molecular target: T3, Amine oxidase [flavin-containing] B (Homo sapiens, UniProt P27338); assay: Inhibiting activity of the compound was determined against human Monoamine oxidase B
T3 sequence (P27338 whole entry): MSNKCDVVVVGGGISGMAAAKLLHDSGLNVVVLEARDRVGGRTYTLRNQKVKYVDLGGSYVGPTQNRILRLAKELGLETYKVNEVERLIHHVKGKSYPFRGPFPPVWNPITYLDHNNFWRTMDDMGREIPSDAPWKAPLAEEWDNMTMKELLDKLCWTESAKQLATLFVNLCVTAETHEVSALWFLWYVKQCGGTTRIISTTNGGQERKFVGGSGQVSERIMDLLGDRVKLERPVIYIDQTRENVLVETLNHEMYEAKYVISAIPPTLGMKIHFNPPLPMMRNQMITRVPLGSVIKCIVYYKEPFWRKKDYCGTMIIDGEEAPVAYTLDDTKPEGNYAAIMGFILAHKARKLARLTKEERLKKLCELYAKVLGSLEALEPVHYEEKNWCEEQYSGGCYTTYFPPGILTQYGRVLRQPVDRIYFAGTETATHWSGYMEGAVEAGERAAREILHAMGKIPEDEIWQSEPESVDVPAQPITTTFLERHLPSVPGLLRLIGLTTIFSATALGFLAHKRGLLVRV

[4] = Inhibitory activity against Serum amine oxidase
[5] = Inhibitory activity against Serum amine oxidase; No inhibition, corresponding to value >10e-4
[6] = Inhibitory activity against Swine kidney diamine oxidase (SKDAO); No inhibition, corresponding to value >10e-4

Row | SMILES | Ki [1] [nM] | Ki [2] [nM] | Ki [3] [nM] | Ki [4] [nM] | Ki [5] | Ki [6]
1 | CC(=O)N1N=C(c2ccccc2O)CC1c1ccccc1C (stereo unspecified) | 300000 | – | – | 57000 | – | –
2 | CC(=O)N1N=C(c2ccc(O)cc2O)CC1c1ccccc1C (stereo unspecified) | 80 | 52 | 30 | – | – | –
3 | CC(=O)N1N=C(c2ccccc2)CC1c1ccc(Cl)cc1 (stereo unspecified) | 6000 | – | – | – | No inhibition | No inhibition

The next lines start with the values.

Row | Ki [1] [nM] | Ki [2] [nM] | Ki [3] [nM] | Ki [4] [nM] | Ki [5] | Ki [6] | SMILES
4 | 5500 | – | – | – | – | – | CC(=O)N1N=C(c2ccccc2O)CC1c1cccc(C)c1 (stereo unspecified)
5 | 50 | 13 | 38 | 10000 | – | – | CC(=O)N1N=C(c2ccc(O)cc2O)CC1c1cccc(C)c1 (stereo unspecified)
6 | 200000 | – | – | – | No inhibition | No inhibition | CC(=O)N1N=C(c2ccccc2)CC1c1cccc(C)c1 (stereo unspecified)
